Values after ≈ are worked out from the molar mass of the structure shown.
Experiments:
[1] = system: Mycobacterium smegmatis ATCC 607; test: Antimicrobial activity against Mycobacterium smegmatis ATCC 607 (agar plate-cylinder); format: cell-based; conditions: standard bleomycin A2 (copper-free) assumed 1,000 mcg potency/mg
Experimental: (§1) 2. ANT[…] MYC[…] ATCC 607 AND BACILLUS SUBTILIS
(§2) The antimicrobial activity was tested against the captioned test organisms by the method of agar plate-cylinder. The activity was recorded on the assumption that the activity of standard sample of bleomycin A2 (copper-free form) is 1,000 mcg poteney/mg.

[2] = system: HeLa S3 cells; test: Growth inhibitory activity against cultured HeLa S3 cells; format: cell-based; conditions: Homo sapiens, HeLa S3, 72 h; Cu-free; 3 days; read-out: 50% Growth inhibitory concentration of Cu-free compd. against cultured HeLaS3 cells (ID50)
Experimental: 3. GROWTH INHIBITORY ACTIVITY AGAINST CULTURED HELA S3 CELLS
HeLa S3 cells were inoculated into a medium (MEM with 10% bovine serum) placed in a plastic petri dish. Two days thereafter, a bleomycin was added to the dish. After 3 days of breeding, the number of cells were counted. The percentage growth inhibition was calculated using the following equation:
Percentage inhibition (%)=100×(B-A)/(B-C) where A is the final number of cells after 3 days from the addition of test sample, B is the final number of cells in the control without addition of the test smaple, and C is the number of cells at the time of addition of the test sample.

[3] = system: Bacillus subtilis; test: Antimicrobial activity against Bacillus subtilis (agar plate-cylinder); format: cell-based; conditions: standard bleomycin A2 (copper-free) assumed 1,000 mcg potency/mg
Experimental: as §1, §2

[4] = molecular target: T1, bleomycin-inactivating enzyme (Rattus norvegicus, UniProt P70645); test: in vitro; conditions: liver extract
T1 sequence (P70645 1-454): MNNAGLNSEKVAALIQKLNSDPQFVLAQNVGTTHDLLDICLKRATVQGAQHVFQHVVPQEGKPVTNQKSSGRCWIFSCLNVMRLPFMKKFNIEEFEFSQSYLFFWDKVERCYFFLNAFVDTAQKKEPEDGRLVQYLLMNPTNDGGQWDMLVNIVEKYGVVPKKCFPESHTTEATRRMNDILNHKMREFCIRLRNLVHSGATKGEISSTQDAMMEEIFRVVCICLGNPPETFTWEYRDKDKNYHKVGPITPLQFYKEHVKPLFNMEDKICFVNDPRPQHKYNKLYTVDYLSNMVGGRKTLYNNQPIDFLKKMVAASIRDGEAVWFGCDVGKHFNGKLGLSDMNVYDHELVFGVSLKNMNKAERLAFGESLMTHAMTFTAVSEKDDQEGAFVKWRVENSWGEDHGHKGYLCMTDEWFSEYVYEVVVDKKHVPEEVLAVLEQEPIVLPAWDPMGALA

[5] = molecular target: T1, bleomycin-inactivating enzyme; conditions: rated under conditions where inactivation of bleomycin B2 is 50%; 37° C., 40 minutes; residual activity against M. smegmatis ATCC 607
[6] = system: pulmonary fibrosis; test: Pulmonary toxicity (pulmonary fibrosis) in mice
[7] = ICR mice, 5 mg/kg i.p. once a day for 10 days, points 0, 1, 2, 4, 6

With `CNC(=O)C(N)CNC(CC(N)=O)c1nc(N)c(C)c(C(=O)NC(C(=O)NC(C)C(O)C(C)C(=O)NC(C(=O)NCCc2nc(-c3nc(C(=O)NCCc4c[nH]cn4)cs3)cs2)C(C)O)C(OC2OC(CO)C(O)C(O)C2OC2OC(CO)C(O)C(OC(N)=O)C2O)c2cnc[nH]2)n1` (centres unmarked) [Compound 1, 2-(4'-Imidazolyl)ethylamino-(amido)N--[methyl]-BLM] the “Antimicrobial potency of Cu-free compound against Mycobacterium smegmatis ATCC 607” value [1] was 1447 mcg potency/mg, the IC50 [2] was 1.2 µg/mL (≈ 0.845 µM) and the “Antimicrobial potency of Cu-free compound against Bacillus subtilis” value [3] was 654 mcg potency/mg. It also gave a metabolised at 40 min [4] of 5 to 14%.

For `CCNC(=O)C(N)CNC(CC(N)=O)c1nc(N)c(C)c(C(=O)NC(C(=O)NC(C)C(O)C(C)C(=O)NC(C(=O)NCCc2nc(-c3nc(C(=O)NCCc4c[nH]cn4)cs3)cs2)C(C)O)C(OC2OC(CO)C(O)C(O)C2OC2OC(CO)C(O)C(OC(N)=O)C2O)c2cnc[nH]2)n1` (centres unmarked) [Compound 2, 2-(4'-Imidazolyl)ethylamino-(amido)N--[ethyl]-BLM], the “Antimicrobial potency of Cu-free compound against Mycobacterium smegmatis ATCC 607” value [1] was 1895 mcg potency/mg, the IC50 [2] was 0.98 µg/mL (≈ 0.683 µM) and the “Antimicrobial potency of Cu-free compound against Bacillus subtilis” value [3] was 767 mcg potency/mg. It also gave a metabolised at 40 min [4] of 15 to 24%.

With `CCN(CC)CCCC(C)NC(=O)C(N)CNC(CC(N)=O)c1nc(N)c(C)c(C(=O)NC(C(=O)NC(C)C(O)C(C)C(=O)NC(C(=O)NCCc2nc(-c3nc(C(=O)NCCCNC(C)c4ccccc4)cs3)cs2)C(C)O)C(OC2OC(CO)C(O)C(O)C2OC2OC(CO)C(O)C(OC(N)=O)C2O)c2cnc[nH]2)n1` [Compound 36, 3-((S)-1'-phenylethylamino)propylamino-(amido)N--[4-diethylamino-1-methylbutyl]-BLM] the “Antimicrobial potency of Cu-free compound against Mycobacterium smegmatis ATCC 607” value [1] was 6061 mcg potency/mg, the “Resistance of Cu-free compound against inactivating enzyme (degree of inactivation)” value [5] was “+ +++” and the “Antimicrobial potency of Cu-free compound against Bacillus subtilis” value [3] was 3694 mcg potency/mg.

With `CCCCN(CCCC)CCCNC(=O)C(N)CNC(CC(N)=O)c1nc(N)c(C)c(C(=O)NC(C(=O)NC(C)C(O)C(C)C(=O)NC(C(=O)NCCc2nc(-c3nc(C(=O)NCCC[N+](CC)(CC)CCCN(Cc4ccccc4)Cc4ccccc4)cs3)cs2)C(C)O)C(OC2OC(CO)C(O)C(O)C2OC2OC(CO)C(O)C(OC(N)=O)C2O)c2cnc[nH]2)n1` (centres unmarked) [Compound 57, 3-{N,N--diethyl-N--[3-(dibenzylamino)propyl]amino}propylamino-(amido)N--[3-(di-n-butylamino)propyl]-BLM] the “Antimicrobial potency of Cu-free compound against Mycobacterium smegmatis ATCC 607” value [1] was 25924 mcg potency/mg, the “Resistance of Cu-free compound against inactivating enzyme (degree of inactivation)” value [5] was “+++ +” and the “Antimicrobial potency of Cu-free compound against Bacillus subtilis” value [3] was 1831 mcg potency/mg. For the same molecule, the “Incidence: Number of mice with pulmonary fibrosis (%)” value ([6]; ICR mice, 5 mg/kg i.p. once a day for 10 days, 5 weeks observation) was 0%, the “Incidence: Number of mice with pulmonary fibrosis” value ([6]; ICR mice, 5 mg/kg i.p. once a day for 10 days, 5 weeks observation, mice with fibrosis/total) was 0/9 and the “Grade: Total score of pulmonary fibrosis/total number of samples” value [6, 7] was 0/27. The “Grade: Total score of pulmonary fibrosis/total number of samples (%)” value [6, 7] was 0% and the “Ratio (by comparison with "Bleomycin Complex")” value ([6]; versus Bleomycin Complex) was 0.

`Cc1c(N)nc(C(CC(N)=O)NCC(N)C(N)=O)nc1C(=O)NC(C(=O)NC(C)C(O)C(C)C(=O)NC(C(=O)NCCc1nc(-c2nc(C(=O)NCCCCNC(=N)N)cs2)cs1)C(C)O)C(OC1OC(CO)C(O)C(O)C1OC1OC(CO)C(O)C(OC(N)=O)C1O)c1cnc[nH]1` (centres unmarked) [bleomycin B2, reference compound] gave a metabolised at 40 min [4] of 50%.
